Earlier results, collected in patent US20050158747A1, “CFTR modifier genes and expressed polypeptides useful in treating cystic fibrosis and methods and products for detecting and/or identifying same” (priority 2003, published 2005).

What was measured:
sodium (Na^+) channels = settings: aerosolized; initial results
[1] = tested on: purinergic receptors in the airway epithelium; settings: in vitro studies

Compound | rate of disease progression, as measured by lung function tests (sodium (Na^+) channels) | safety in trials (sodium (Na^+) channels) | chloride (Cl^−) secretion [1]
N=C(N)NC(=O)c1nc(Cl)c(N)nc1N [amiloride] | slight change in the rate of disease progression | safe | 
O=c1ccn([C@@H]2O[C@H](COP(=O)(O)OP(=O)(O)OP(=O)(O)O)[C@@H](O)[C@H]2O)c(=O)[nH]1 [UTP] |  |  | can stimulate chloride (Cl^−) secretion
Nc1ncnc2c1ncn2[C@@H]1O[C@H](COP(=O)(O)OP(=O)(O)OP(=O)(O)O)[C@@H](O)[C@H]1O [ATP] |  |  | can stimulate chloride (Cl^−) secretion
